Source: patent US9545410B2, “Tyrosine kinase inhibitors as anti-kinetoplastid agents” (UNIVERSITY OF GEORGIA RESEARCH FOUNDATION, INC., priority 2006, dated 2017)
Read-outs that look alike come from different tables or passages of the source.

Key:
[1] = tested on: blood stream T. brucei strain 427; assay: Cultured bloodstream T. brucei growth/viability, parasites counted with a haemocytometer; type: cell-based, Trypanosoma brucei; conditions: for concentration at which all parasites were killed / no parasites survived: blood stream T. brucei strain 427, 37° C. for 40 hours
Experimental: Cultured trypanosomes (seeded at 10^4/ml) in 100 μl of a 96-well plate received varying amounts of Tyrphostin A47 (Sigma). Parasites were counted with a haemocytometer after 48 hours in culture. Data are means of triplicate determinations, they are representative of three independent trials. Blood stream form of T. brucei were used for these studies since that stage of the parasite causes disease in humans. Inhibitory concentration 50 (IC50) is the drug concentration which reduces the growth rate by 50%. Minimum inhibitory concentration (MIC) is the lowest concentration which killed all the parasites.
T. brucei strain 427 was cultured axenically and seeded at 10^4 cells/ml in 200 μl of medium a 96-well plate. Tyrphostin AG1478 (Sigma) (Zhu et al., 2001, Cancer Lett; 169:27-32; Shushan et al., 2004, Hum Reprod; 19:1957-1967) was added to the stated final concentrations, cells were incubated at 37° C. for 40 hours, and parasites were counted with a haemocytometer. Data are mean values representative of two independent trials each of which was performed in triplicate. T. brucei replicates every 8-10 hours.
The 4-anilinoquinazoline canertinib (also referred to as C1-1033) is an inhibitor of EGFR kinase (Dewji, 2004, J Chemotherapy; 16(Suppl 4):44-48; Hamid, 2004, J Am Pharm Assoc; 44:52-58). To test the trypanocidal activity of canertinib, culture of blood stream T. brucei strain 427 was initiated in 24-well plates at 10^4 cells/ml (in 500 μl of medium (Hirumi and Hirumi, 1991, Parasitology; 102(Pt 2):225-236)). Canertinib (Heymach et al., 2006, Clin Cancer Res; 12:4441s) (provided by Pfizer) was added to the stated final concentrations, and cells were incubated at 37° C. for 40 hours. Control cells received an equal volume of solvent (DMSO). Parasites were counted with a haemocytometer. Data plotted are mean values of quadruplicate determinations from one of three independent trials that produced similar results.
This example also determined that erlotinib (TARCEVA), a 4-anilinoquinazoline tyrosine kinase inhibitor is trypanocidal. erlotinib (TARCEVA), like canertinib, is an inhibitor of EGFR kinase (Bulgaru et al., 2003, Expert Rev Anticancer Ther; 3(3):269-79; Akita and Sliwkowski, 2003, Semin Oncol; 30(3 Suppl 7):15-24). The culture of blood stream T. brucei strain 427 was initiated in 24-well plates at 10^4 cells/ml in 500 μl of medium (Hirumi and Hirumi, 1991, Parasitology; 102 Pt 2:225-236). Erlotinib (TARCEVA) (provided by Genentech/OSI), was added to the stated final concentrations shown in FIG. 4, and cells were incubated at 37° C. for 40 hours.
This example presents data showing sunitinib and axitinib (both provided by Pfizer) are trypanocidal. Sunitinib (also known as SU11248 and marketed under the trade name SUTENT) inhibits VEGFR, PDGF, and c-Kit kinases (reviewed in Steeghs et al., 2007, Ann Surg Oncol; 14(2):942-53) and is approved by the Food and Drug Administration for treatment of renal cell carcinoma. […] Therefore, this example tests whether sunitinib (SUTENT) compromised T. brucei viability. To blood stream form T. brucei 427 (seeded at 10^4 cells/ml in 500 μl of medium) sunitinib (SUTENT) (Abrams et al., 2003, Mol Cancer Ther; 2:471-478; Mendel et al., 2003, Clin Cancer Res; 9:327-337) was added to the stated final concentrations and cells were incubated at 37° C. for 40 hours. Parasites were counted with a haemocytometer. Data plotted are mean values of quadruplicate determinations from a representative experiment.

[2] = cited from earlier work
[3] = Trypanosoma brucei, blood stream T. brucei strain 427 seeded at 10^4 cells/ml, 37° C. for 40 hours, read-out: IC50

Question: With `C=CC(=O)Nc1cc2c(Nc3ccc(F)c(Cl)c3)ncnc2cc1OCCCN1CCOCC1` [canertinib, N-[−4-[(3-chloro-4-fluorophenyl)amino]-7-[3-(4-morpholinyl)propoxy]-6-quinazolinyl]-2-propenamide] as the molecule, how does the IC50 [1, 3] read?
Answer: 1000 nM

Question: And the “concentration at which all parasites were killed / no parasites survived” value [1]?
Answer: Above 4 μM

Question: Which IC50 ([1]; blood stream T. brucei strain 427 seeded at 10^4 cells/ml, 37° C. for 40 hours, read-out: IC50) does the source give for `COc1cc2ncnc(Nc3cccc(Cl)c3)c2cc1OC` [Tyrphostin AG1478] here?
Answer: 2500 to 5000 nM

Question: Which “trypanocidal effect on T. brucei (in words)” value ([1]; blood stream form T. brucei 427, 37° C. for 40 hours) does the source give for `CCN(CC)CCNC(=O)c1c(C)[nH]c(/C=C2\C(=O)Nc3ccc(F)cc32)c1C` [SUTENT, N-[2-(diethylamino)ethyl]-5-[(Z)-(5-fluoro-1,2-dihydro-2-oxo-3H-indol-3-ylidine)methyl]-2,4-dimethyl-1H-pyrrole-3-carboxamide] here?
Answer: kills T. brucei at low micromolar levels

Question: Which results are given for `C#Cc1cccc(Nc2ncnc3cc(OCCOC)c(OCCOC)cc23)c1` [erlotinib, N-(3-ethynylphenyl)-6,7-bis(2-methoxyethoxy)quinazolin-4-amine]?
Answer: plasma concentration ([2]; human patients receiving a cycle of 150 mg/day): 60 µM; plasma concentration ([2]; single dose): 2 µM; IC50 [1, 3]: ~1700 nM; concentration at which all parasites were killed / no parasites survived [1]: 10 µM

Question: For `N#C/C(=C\c1ccc(O)c(O)c1)C(N)=S` [Tyrphostin A47], which IC50 ([1]; blood stream form T. brucei seeded at 10^4/ml, 96-well plate, counted after 48 hours, read-out: IC50 (drug concentration which reduces the growth rate by 50%)) is on record?
Answer: 1000 to 5000 nM
